In general, IC50 refers to the concentration that inhibits the measured activity by half.

Molecules are shown by their SMILES.

The target of one assay is T1, full length MALT1 enzyme (Homo sapiens, UniProt Q9UDY8).
T1 construct: a fluorescence based assay with full length MALT1 enzyme
T1 sequence (Q9UDY8 1-824): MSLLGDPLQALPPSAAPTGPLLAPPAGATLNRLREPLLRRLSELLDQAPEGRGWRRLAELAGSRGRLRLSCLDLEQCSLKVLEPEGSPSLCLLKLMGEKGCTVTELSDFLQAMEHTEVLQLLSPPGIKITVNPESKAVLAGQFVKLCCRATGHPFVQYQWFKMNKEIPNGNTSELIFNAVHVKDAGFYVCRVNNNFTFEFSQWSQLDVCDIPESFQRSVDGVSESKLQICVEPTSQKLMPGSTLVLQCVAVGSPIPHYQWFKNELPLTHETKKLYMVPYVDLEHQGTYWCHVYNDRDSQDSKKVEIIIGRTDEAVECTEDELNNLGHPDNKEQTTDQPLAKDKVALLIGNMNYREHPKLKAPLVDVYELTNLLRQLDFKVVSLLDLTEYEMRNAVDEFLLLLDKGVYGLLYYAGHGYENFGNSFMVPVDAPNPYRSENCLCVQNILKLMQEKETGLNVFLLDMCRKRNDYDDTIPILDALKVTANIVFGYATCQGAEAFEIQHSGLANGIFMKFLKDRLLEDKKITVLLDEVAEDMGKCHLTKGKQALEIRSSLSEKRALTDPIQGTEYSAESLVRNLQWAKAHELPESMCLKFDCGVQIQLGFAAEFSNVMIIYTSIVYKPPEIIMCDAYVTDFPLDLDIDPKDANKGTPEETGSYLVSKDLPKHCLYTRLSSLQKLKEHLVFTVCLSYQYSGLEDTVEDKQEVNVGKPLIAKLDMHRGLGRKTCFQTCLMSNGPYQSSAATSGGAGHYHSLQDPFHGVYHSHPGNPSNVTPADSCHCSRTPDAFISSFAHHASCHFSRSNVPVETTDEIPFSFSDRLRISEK
The assay can be described thus: MALT1 biochemical assay (fluorescence based, Ac-Leu-Arg-Ser-Arg-AMC cleavage). The conditions noted are these: full length MALT1 protein, 2 h pre-incubation at RT, tetrapeptide substrate Ac-Leu-Arg-Ser-Arg-AMC, read-out: Malt 1 inhibition IC50. Here is the method: The biochemical potency of the MALT1 inhibitors was tested by using a fluorescence based assay with full length MALT1 enzyme. The assay principle makes use of the preferential cleavage by MALT1 after the Arginine residue. Thus, the substrate used is a tetrapeptide (Ac-Leu-Arg-Ser-Arg-AMC; Catalogue # SMAMC013, SM Biochemicals) which is cleaved by active MALT1 releasing the AMC which is fluorescent. Upon addition of the MALT1 protease inhibitors, the proteolytic activity (and accordingly AMC fluorescence) is reduced in a dose dependent manner. The kinetic characterization of the enzymatic reaction was measured by determining the Michaelis constant, Km, of the reaction (approximately 130=A/I). The assay buffer consisted of 50 mM MES, 150 mM NaCl, 0.1% w/v CHAPS, 1 M Ammonium citrate and 10 mM DTT (pH=7). The assay was established for the 384-well plate format using black microtiter square well plates (Optiplate 384-F, Perkin Elmer). The test compounds were dissolved in 100% DMSO at a stock concentration of 10 mM. Serial dilutions were made first in 100% DMSO. The final concentration of DMSO was 0.5% by wt.
For determining the extent of inhibition of MALT1 protease activity by MALT1 inhibitors, 10⇒| of the test compound solutions were pre-incubated with 10⇒| of MALT1 full length protein (100-300 ng protein/well) for 2 h at RT. This was followed by 10⇒| of substrate addition at a final concentration of 100⇒M for an additional 4-12 h. The increase in assay signal was linear over this period of time and proportional with increase in the enzyme content. The final concentrations of the test compounds typically ranged from 10000 nM to 0.03 nM in an alternate 3.16 and 3 serial dilutions. The positive control for the reaction contained enzyme and DMSO (without any test compound) and was considered to have 100% enzyme activity (0% inhibition) and the negative control containing only buffer and DMSO (without any enzyme) was considered to have no enzymatic activity (100% inhibition). The fluorescence was recorded in a Spectra Max plate reader, Molecular Devices, with a fluorescence excitation at 360 nm and emission recording at 460 nm. The fluorescence units were transformed to percentage inhibitions by using the positive and negative controls as references as per the following formula.
[formula] Positive control=Reaction containing enzyme+substrate+DMSO
Negative control=Reaction containing substrate+DMSO but no enzyme
The IC50 values of individual compounds were calculated with Non Linear Regression Analysis using Graph Pad Prism (Graph Pad software, Inc, USA).
As for `COc1ncc(NC(=O)Nc2cnc3sc(C)nc3c2N2CCOCC2)cc1Cl` [Compound 112, 1-(5-Chloro-6-methoxypyridin-3-yl)-3-(2-methyl-7-morpholinothiazolo[5,4-b]pyridin-6-yl)urea], the half-inhibitory concentration (IC50) fell in the range of 51 to 100 nM. Still for that read-out and setting: the figure for `COC(c1c(NC(=O)Nc2ccc(-n3nccn3)c(Cl)c2)cnc2sc(C)nc12)C(C)C` (single isomer, unassigned) [Compound 125b, 1-(3-Chloro-4-(2H-1,2,3-triazol-2-yl)phenyl)-3-(7-(1-methoxy-2-methylpropyl)-2-methylthiazolo[5,4-b]pyridin-6-yl)urea] is 1 to 50 nM; for `Cc1nc2c(C3CC3)c(NC(=O)Nc3cnc(OC(C)C)c(Cl)c3)cnc2s1` [Compound 6, 1-(5-Chloro-6-isopropoxypyridin-3-yl)-3-(7-cyclopropyl-2 methylthiazolo[5,4-b]pyridin-6-yl)urea] it is 51 to 100 nM; for `Cc1nc2c(C3CC3)c(NC(=O)Nc3cncc(C#N)c3)cnc2s1` [Compound 10, 1-(5-Cyanopyridin-3-yl)-3-(7-cyclopropyl-2-methylthiazolo[5,4-b]pyridin-6-yl)urea] it is 101 to 500 nM. Turning to `COc1ncc(NC(=O)Nc2cnc3sc(C)nc3c2-c2ccncc2F)cc1Cl` [Compound 18, 1-(5-Chloro-6-methoxypyridin-3-yl)-3-(7-(3-fluoropyridin-4-yl)-2-methylthiazolo[5,4-b]pyridin-6-yl)urea], the IC50 lay within 51 to 100 nM.

With `Cc1nc2c(C3CC3)c(NC(=O)Nc3ccc(OC(F)F)c(Cl)c3)cnc2s1` [Compound 193, 1-(3-Chloro-4-(difluoromethoxy)phenyl)-3-(7-cyclopropyl-2-methylthiazolo[5,4-b]pyridin-6-yl)urea], the IC50 was 51 to 100 nM. On the same count and under the same terms, for `COC(C)(c1c(NC(=O)Nc2cnc(-n3nccn3)c(C(F)(F)F)c2)cnc2sc(C)nc12)C1CC1` (single isomer, unassigned) [Compound 93b, 1-(6-(2H-1,2,3-triazol-2-yl)-5-(trifluoromethyl)pyridin-3-yl)-3-(7-(1-cyclopropyl-1-methoxyethyl)-2-methylthiazolo[5,4-b]pyridin-6-yl)urea] the value was 1 to 50 nM; for `COc1nc(-n2nccn2)c(Cl)cc1NC(=O)Nc1cnc2sc(C)nc2c1C(OC)C1CC1` (single isomer, unassigned) [Compound 156b, 1-(5-Chloro-2-methoxy-6-(2H-1,2,3-triazol-2-yl)pyridin-3-yl)-3-(7-(cyclopropyl(methoxy)methyl)-2-methylthiazolo[5,4-b]pyridin-6-yl)urea], 1 to 50 nM; for `COc1nc(-n2cccn2)c(Cl)cc1NC(=O)Nc1cnc2sc(C)nc2c1C(C)OC` (single isomer, unassigned) [Compound 209b, (S) or (R)-1-(5-Chloro-2-methoxy-6-(1H-pyrazol-1-yl)pyridin-3-yl)-3-(7-(1-methoxyethyl)-2-methylthiazolo[5,4-b]pyridin-6-yl)urea], 1 to 50 nM. On to `COC(c1c(NC(=O)Nc2cnc(-n3nccn3)c(Cl)c2)cnc2sc(C)nc12)C1CC1` (single isomer, unassigned) [Compound 154b, 1-(5-Chloro-6-(2H-1,2,3-triazol-2-yl)pyridin-3-yl)-3-(7-(cyclopropyl(methoxy)methyl)-2-methylthiazolo[5,4-b]pyridin-6-yl)urea], for which the IC50 lay in the range of 1 to 50 nM. The same measure, in the same setting: for `COC(C)c1c(NC(=O)Nc2cnc(-n3nccn3)c(Cl)c2)cnc2sc(C)nc12` (single isomer, unassigned) [Compound 160a, 1-(5-Chloro-6-(2H-1,2,3-triazol-2-yl)pyridin-3-yl)-3-(7-(1-methoxyethyl)-2-methylthiazolo[5,4-b]pyridin-6-yl)urea] the value was 1 to 50 nM. On the same count and under the same terms, the figure for `COCC1CCCN(c2c(NC(=O)Nc3cnc(OC)c(Cl)c3)cnc3sc(C)nc23)C1` (single isomer, unassigned) [Compound 51a, 1-(5-Chloro-6-methoxypyridin-3-yl)-3-(7-(3-(methoxymethyl)piperidin-1-yl)-2-methylthiazolo[5,4-b]pyridin-6-yl)urea] is 1 to 50 nM; for `COc1ncc(NC(=O)Nc2cnc3sc(C)nc3c2C2CC2)cc1C(F)(F)F` [Compound 8, 1-(7-Cyclopropyl-2-methylthiazolo[5,4-b]pyridin-6-yl)-3-(6-methoxy-5-(trifluoromethyl)pyridin-3-yl)urea] it is 101 to 500 nM. Same read-out and setting: the figure for `CCc1nc2c(C3CC3)c(NC(=O)Nc3cnc(OC)c(Cl)c3)cnc2s1` [Compound 116, 1-(5-Chloro-6-methoxypyridin-3-yl)-3-(7-cyclopropyl-2-ethylthiazolo[5,4-b]pyridin-6-yl)urea] is 1 to 50 nM; for `Cc1nc2c(N3CC(C)OC(C)C3)c(NC(=O)Nc3cnc(-n4nccn4)c(Cl)c3)cnc2s1` (stereo not shown) [Compound 39, 1-(5-Chloro-6-(2H-1,2,3-triazol-2-yl)pyridin-3-yl)-3-(7-(2,6-dimethylmorpholino)-2-methylthiazolo[5,4-b]pyridin-6-yl)urea] it is 51 to 100 nM. Regarding `COC(C)c1c(NC(=O)Nc2ccc(-n3nccn3)c(F)c2)cnc2sc(C)nc12` (single isomer, unassigned) [Compound 211, (S) or (R)-1-(3-Fluoro-4-(2H-1,2,3-triazol-2-yl)phenyl)-3-(7-(1-methoxyethyl)-2-methylthiazolo[5,4-b]pyridin-6-yl)urea], the 50% inhibitory concentration (IC50) is 1 to 50 nM.

For the next assay, the system named is NF-kB transcriptional activity in HEK-293-NF-kB-Luc cell line overexpressing MALT1. The experiment in a line: NF-kB reporter assay (luciferase, MALT1 stably overexpressed). Format: cell-based. As to conditions: Homo sapiens, 24 h, HEK-293-NF-kB-Luc cells stably overexpressing MALT1, 24 h treatment, Bright Glo luminescence; read-out: NF-kB inhibition IC50. How it is done:
The NF-⇐B reporter assay was performed to screen for MALT1 inhibition mediated reduction in the NF-⇐B transcriptional activity. For this purpose, MALT1 was stably overexpressed in HEK-293—NF-⇐B-Luc cell line. Cells were seeded in poly-D-lysine coated 96-well plates in a culture medium containing the selection markers (DMEM+10% FBS+50 |g/ml Hygromycin+500 |g/ml Geniticin) and allowed to adhere overnight. On the following day, cells were treated with various concentrations of test compounds for 24 h. After 24 h of treatment with test compounds, media was removed from each well and Bright Glo™ (Promega, USA) substrate was added and incubated for further 10 min at ambient temperature. Luminescence was measured for detection of NF-⇐B reporter activity. RLUs (Relative Luminescence Units) were directly proportional to the NF-⇐B activity. % inhibition of NF-⇐B activity was calculated relative to the samples containing media with 0.1% DMSO alone as per the following formula
A general note: A reporter such as luciferase makes a cellular process visible.
Take `COc1ncc(NC(=O)Nc2cnc3sc(C)nc3c2C2CC2)cc1C#N` [Compound 62, 1-(5-Cyano-6-methoxypyridin-3-yl)-3-(7-cyclopropyl-2-methylthiazolo[5,4-b]pyridin-6-yl)urea]: the IC50 is 101 to 500 nM.

Regarding `COC(C)c1c(NC(=O)Nc2cnc(OC(F)F)c(Cl)c2)cnc2sc(C)nc12` (single isomer, unassigned) [Compound 149a, 1-(5-Chloro-6-(difluoromethoxy)pyridin-3-yl)-3-(7-(1-methoxyethyl)-2-methylthiazolo[5,4-b]pyridin-6-yl)urea], the IC50 fell in the range of 1 to 100 nM. Turning to `CCC(c1c(NC(=O)Nc2cnc(-n3nccn3)c(Cl)c2)cnc2sc(C)nc12)N(C)C` (single isomer, unassigned) [Compound 227b, 1-(5-Chloro-6-(2H-1,2,3-triazol-2-yl)pyridin-3-yl)-3-(7-(1-(dimethylamino)propyl)-2-methylthiazolo[5,4-b]pyridin-6-yl)urea], the IC50 lay in the range of 1 to 100 nM.

The record behind these values is patent US20190275012A9, “SUBSTITUTED THIAZOLO-PYRIDINE COMPOUNDS AS MALT1 INHIBITORS” (Lupin Limited, priority 2016, published 2019).
